Where a SMILES comes first, the peptide text is derived from it. Bridges are numbered along the chain shown (N, C = ends). [ ]: non-standard residue; d: D form. hPhe(3-Cl-4-CF3) = N[C@@H](CCc1ccc(C(F)(F)F)c(Cl)c1)C(=O)O; NPrPhe(4-CF3) = CCCN[C@@H](Cc1ccc(C(F)(F)F)cc1)C(=O)O; NMeGly(cPent) = CN[C@H](C(=O)O)C1CCCC1; Pro(4,4-F2) = O=C(O)[C@@H]1CC(F)(F)CN1; Hyp = O=C(O)[C@@H]1C[C@@H](O)CN1; NMeL = CN[C@@H](CC(C)C)C(=O)O; Ac5c = NC1(C(=O)O)CCCC1; Aze = O=C(O)[C@@H]1CCN1; Ac4c = NC1(C(=O)O)CCC1; NEtG = CCNCC(=O)O; Sar = CNCC(=O)O
What was measured:
[1] = molecular target: GDP-bound KRAS wild-type protein (Homo sapiens, UniProt P01116); assay: Binding to KRAS by surface plasmon resonance (SPR), Single Cycle Kinetics; conditions: SPR Single Cycle Kinetics, GDP-bound KRAS wild-type protein, 1:1 binding model; read-out: KRAS KD
Sequence of GDP-bound KRAS wild-type protein (P01116 whole entry): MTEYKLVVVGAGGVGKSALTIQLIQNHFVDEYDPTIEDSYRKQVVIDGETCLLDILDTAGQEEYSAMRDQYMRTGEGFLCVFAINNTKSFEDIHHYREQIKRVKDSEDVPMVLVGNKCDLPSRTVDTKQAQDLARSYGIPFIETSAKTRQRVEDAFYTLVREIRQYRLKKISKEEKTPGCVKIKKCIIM

[2] = molecular target: GDP-bound NRAS wild-type protein (Homo sapiens, UniProt P01111); assay: Binding to NRAS by surface plasmon resonance (SPR), Single Cycle Kinetics; conditions: SPR, GDP-bound NRAS wild-type protein vs GDP-bound KRAS wild-type protein
Sequence of GDP-bound NRAS wild-type protein (P01111 whole entry): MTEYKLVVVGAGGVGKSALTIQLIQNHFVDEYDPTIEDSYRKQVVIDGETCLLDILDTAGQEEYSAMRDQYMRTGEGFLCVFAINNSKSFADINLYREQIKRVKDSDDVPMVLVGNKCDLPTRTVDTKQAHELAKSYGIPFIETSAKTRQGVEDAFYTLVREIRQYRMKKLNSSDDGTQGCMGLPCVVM

[3] = molecular target: GDP-bound HRAS wild-type protein (Homo sapiens, UniProt P01112); assay: Binding to HRAS by surface plasmon resonance (SPR), Single Cycle Kinetics; conditions: SPR, GDP-bound HRAS wild-type protein vs GDP-bound KRAS wild-type protein
Sequence of GDP-bound HRAS wild-type protein (P01112 whole entry): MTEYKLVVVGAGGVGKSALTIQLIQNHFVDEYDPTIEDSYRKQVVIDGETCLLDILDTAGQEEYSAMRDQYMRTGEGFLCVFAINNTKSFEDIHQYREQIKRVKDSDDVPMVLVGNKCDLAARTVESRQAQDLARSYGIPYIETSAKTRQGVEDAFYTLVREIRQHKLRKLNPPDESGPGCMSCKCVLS

SMILES	Kd [1]	NRAS/KRAS (ratio of KD value for NRAS to KD value for KRAS) [2]	HRAS/KRAS (ratio of KD value for HRAS to KD value for KRAS) [3]
CCCN1C(=O)CN(C)C(=O)CN(CC)C(=O)[C@H]([C@@H](C)CC)NC(=O)[C@H](CC(C)C)N(C)C(=O)C[C@@H](C(=O)N(C)C)NC(=O)[C@H](C2CCCC2)N(C)C(=O)C2(CCC2)NC(=O)[C@@H]2CCCN2C(=O)[C@H](CCc2ccc(C(F)(F)F)c(Cl)c2)NC(=O)CN(C)C(=O)[C@@H]1Cc1ccc(C(F)(F)F)cc1 [PP0368] ([NMeL]I[NEtG][Sar][NPrPhe(4-CF3)][Sar][hPhe(3-Cl-4-CF3)]P[Ac4c][NMeGly(cPent)]D-NMe2; lactam N-11)	1.7 nM	B (a compound having 3 or more and less than 10 is denoted as B)	B (a compound having 3 or more and less than 10 is denoted as B)
CCCN1C(=O)CN(C)C(=O)CN(CC)C(=O)[C@H]([C@@H](C)CC)NC(=O)[C@H](CC(C)C)N(C)C(=O)C[C@@H](C(=O)N(C)C)NC(=O)[C@H](C2CCCC2)N(C)C(=O)C2(CCCC2)NC(=O)[C@@H]2CC(F)(F)CN2C(=O)[C@H](CCc2ccc(C(F)(F)F)c(Cl)c2)NC(=O)CN(C)C(=O)[C@@H]1Cc1ccc(C(F)(F)F)cc1 [PP0369] ([NMeL]I[NEtG][Sar][NPrPhe(4-CF3)][Sar][hPhe(3-Cl-4-CF3)][Pro(4,4-F2)][Ac5c][NMeGly(cPent)]D-NMe2; lactam N-11)	1.9 nM	B (a compound having 3 or more and less than 10 is denoted as B)	C (A compound having a KD ratio of 0.1 or more and less than 3 is denoted as C)
CCCN1C(=O)CN(C)C(=O)CN(CC)C(=O)[C@H]([C@@H](C)CC)NC(=O)[C@H](CC(C)C)N(C)C(=O)C[C@@H](C(=O)N(C)C)NC(=O)[C@H](C2CCCC2)N(C)C(=O)C2(CCC2)NC(=O)[C@@H]2CC(F)(F)CN2C(=O)[C@H](CCc2ccc(C(F)(F)F)c(Cl)c2)NC(=O)CN(C)C(=O)[C@@H]1Cc1ccc(C(F)(F)F)cc1 [PP0370] ([NMeL]I[NEtG][Sar][NPrPhe(4-CF3)][Sar][hPhe(3-Cl-4-CF3)][Pro(4,4-F2)][Ac4c][NMeGly(cPent)]D-NMe2; lactam N-11)	1.5 nM	B (a compound having 3 or more and less than 10 is denoted as B)	C (A compound having a KD ratio of 0.1 or more and less than 3 is denoted as C)
CCCN1C(=O)CN(C)C(=O)[C@@H]2CCN2C(=O)[C@H]([C@@H](C)CC)NC(=O)[C@H](CC(C)C)N(C)C(=O)C[C@@H](C(=O)N(C)C)NC(=O)[C@H](C2CCCC2)N(C)C(=O)C2(CCCC2)NC(=O)[C@@H]2CCCN2C(=O)[C@H](CCc2ccc(C(F)(F)F)c(Cl)c2)NC(=O)CN(C)C(=O)[C@@H]1Cc1ccc(C(F)(F)F)cc1 [PP0373] ([NMeL]I[Aze][Sar][NPrPhe(4-CF3)][Sar][hPhe(3-Cl-4-CF3)]P[Ac5c][NMeGly(cPent)]D-NMe2; lactam N-11)	1.2 nM	B (a compound having 3 or more and less than 10 is denoted as B)	B (a compound having 3 or more and less than 10 is denoted as B)
CCCN1C(=O)CN(C)C(=O)[C@@H]2CCN2C(=O)[C@H]([C@@H](C)CC)NC(=O)[C@H](CC(C)C)N(C)C(=O)C[C@@H](C(=O)N(C)C)NC(=O)[C@H](C2CCCC2)N(C)C(=O)C2(CCC2)NC(=O)[C@@H]2CCCN2C(=O)[C@H](CCc2ccc(C(F)(F)F)c(Cl)c2)NC(=O)CN(C)C(=O)[C@@H]1Cc1ccc(C(F)(F)F)cc1 [PP0374] ([NMeL]I[Aze][Sar][NPrPhe(4-CF3)][Sar][hPhe(3-Cl-4-CF3)]P[Ac4c][NMeGly(cPent)]D-NMe2; lactam N-11)	1.8 nM	B (a compound having 3 or more and less than 10 is denoted as B)	B (a compound having 3 or more and less than 10 is denoted as B)
CCCN1C(=O)CN(C)C(=O)[C@@H]2CCN2C(=O)[C@H]([C@@H](C)CC)NC(=O)[C@H](CC(C)C)N(C)C(=O)C[C@@H](C(=O)N(C)C)NC(=O)[C@H](C2CCCC2)N(C)C(=O)C2(CCCC2)NC(=O)[C@@H]2CC(F)(F)CN2C(=O)[C@H](CCc2ccc(C(F)(F)F)c(Cl)c2)NC(=O)CN(C)C(=O)[C@@H]1Cc1ccc(C(F)(F)F)cc1 [PP0375] ([NMeL]I[Aze][Sar][NPrPhe(4-CF3)][Sar][hPhe(3-Cl-4-CF3)][Pro(4,4-F2)][Ac5c][NMeGly(cPent)]D-NMe2; lactam N-11)	2.3 nM	B (a compound having 3 or more and less than 10 is denoted as B)	B (a compound having 3 or more and less than 10 is denoted as B)

More lines, main results first:

Kd [1]	SMILES	NRAS/KRAS (ratio of KD value for NRAS to KD value for KRAS) [2]	HRAS/KRAS (ratio of KD value for HRAS to KD value for KRAS) [3]
1 nM	CCCN1C(=O)CN(C)C(=O)CNC(=O)[C@H]([C@@H](C)CC)NC(=O)[C@H](CC(C)C)N(C)C(=O)C[C@@H](C(=O)N(C)C)NC(=O)[C@H](C2CCCC2)N(C)C(=O)C2(CCCC2)NC(=O)[C@@H]2CC(F)(F)CN2C(=O)[C@H](CCc2ccc(C(F)(F)F)c(Cl)c2)NC(=O)CN(C)C(=O)[C@@H]1Cc1ccc(C(F)(F)F)cc1 [PP0363] ([NMeL]IG[Sar][NPrPhe(4-CF3)][Sar][hPhe(3-Cl-4-CF3)][Pro(4,4-F2)][Ac5c][NMeGly(cPent)]D-NMe2; lactam N-11)	B (a compound having 3 or more and less than 10 is denoted as B)	C (A compound having a KD ratio of 0.1 or more and less than 3 is denoted as C)
0.77 nM	CCCN1C(=O)CN(C)C(=O)CNC(=O)[C@H]([C@@H](C)CC)NC(=O)[C@H](CC(C)C)N(C)C(=O)C[C@@H](C(=O)N(C)C)NC(=O)[C@H](C2CCCC2)N(C)C(=O)C2(CCC2)NC(=O)[C@@H]2CC(F)(F)CN2C(=O)[C@H](CCc2ccc(C(F)(F)F)c(Cl)c2)NC(=O)CN(C)C(=O)[C@@H]1Cc1ccc(C(F)(F)F)cc1 [PP0364] ([NMeL]IG[Sar][NPrPhe(4-CF3)][Sar][hPhe(3-Cl-4-CF3)][Pro(4,4-F2)][Ac4c][NMeGly(cPent)]D-NMe2; lactam N-11)	B (a compound having 3 or more and less than 10 is denoted as B)	B (a compound having 3 or more and less than 10 is denoted as B)
0.29 nM	CCCN1C(=O)CN(C)C(=O)CNC(=O)[C@H]([C@@H](C)CC)NC(=O)[C@H](CC(C)C)N(C)C(=O)C[C@@H](C(=O)N(C)C)NC(=O)[C@H](C2CCCC2)N(C)C(=O)C2(CCCC2)NC(=O)[C@@H]2C[C@@H](OCC)CN2C(=O)[C@H](CCc2ccc(C(F)(F)F)c(Cl)c2)NC(=O)CN(C)C(=O)[C@@H]1Cc1ccc(C(F)(F)F)cc1 [PP0365] ([NMeL]IG[Sar][NPrPhe(4-CF3)][Sar][hPhe(3-Cl-4-CF3)][Hyp](Et)[Ac5c][NMeGly(cPent)]D-NMe2; lactam N-11)	B (a compound having 3 or more and less than 10 is denoted as B)	B (a compound having 3 or more and less than 10 is denoted as B)
0.38 nM	CCCN1C(=O)CN(C)C(=O)CNC(=O)[C@H]([C@@H](C)CC)NC(=O)[C@H](CC(C)C)N(C)C(=O)C[C@@H](C(=O)N(C)C)NC(=O)[C@H](C2CCCC2)N(C)C(=O)C2(CCC2)NC(=O)[C@@H]2C[C@@H](OCC)CN2C(=O)[C@H](CCc2ccc(C(F)(F)F)c(Cl)c2)NC(=O)CN(C)C(=O)[C@@H]1Cc1ccc(C(F)(F)F)cc1 [PP0366] ([NMeL]IG[Sar][NPrPhe(4-CF3)][Sar][hPhe(3-Cl-4-CF3)][Hyp](Et)[Ac4c][NMeGly(cPent)]D-NMe2; lactam N-11)	B (a compound having 3 or more and less than 10 is denoted as B)	B (a compound having 3 or more and less than 10 is denoted as B)
1.3 nM	CCCN1C(=O)CN(C)C(=O)CN(CC)C(=O)[C@H]([C@@H](C)CC)NC(=O)[C@H](CC(C)C)N(C)C(=O)C[C@@H](C(=O)N(C)C)NC(=O)[C@H](C2CCCC2)N(C)C(=O)C2(CCCC2)NC(=O)[C@@H]2CCCN2C(=O)[C@H](CCc2ccc(C(F)(F)F)c(Cl)c2)NC(=O)CN(C)C(=O)[C@@H]1Cc1ccc(C(F)(F)F)cc1 [PP0367] ([NMeL]I[NEtG][Sar][NPrPhe(4-CF3)][Sar][hPhe(3-Cl-4-CF3)]P[Ac5c][NMeGly(cPent)]D-NMe2; lactam N-11)	B (a compound having 3 or more and less than 10 is denoted as B)	B (a compound having 3 or more and less than 10 is denoted as B)
0.48 nM	CCCN1C(=O)CN(C)C(=O)CN(CC)C(=O)[C@H]([C@@H](C)CC)NC(=O)[C@H](CC(C)C)N(C)C(=O)C[C@@H](C(=O)N(C)C)NC(=O)[C@H](C2CCCC2)N(C)C(=O)C2(CCCC2)NC(=O)[C@@H]2C[C@@H](OCC)CN2C(=O)[C@H](CCc2ccc(C(F)(F)F)c(Cl)c2)NC(=O)CN(C)C(=O)[C@@H]1Cc1ccc(C(F)(F)F)cc1 [PP0371] ([NMeL]I[NEtG][Sar][NPrPhe(4-CF3)][Sar][hPhe(3-Cl-4-CF3)][Hyp](Et)[Ac5c][NMeGly(cPent)]D-NMe2; lactam N-11)	B (a compound having 3 or more and less than 10 is denoted as B)	C (A compound having a KD ratio of 0.1 or more and less than 3 is denoted as C)
0.79 nM	CCCN1C(=O)CN(C)C(=O)CN(CC)C(=O)[C@H]([C@@H](C)CC)NC(=O)[C@H](CC(C)C)N(C)C(=O)C[C@@H](C(=O)N(C)C)NC(=O)[C@H](C2CCCC2)N(C)C(=O)C2(CCC2)NC(=O)[C@@H]2C[C@@H](OCC)CN2C(=O)[C@H](CCc2ccc(C(F)(F)F)c(Cl)c2)NC(=O)CN(C)C(=O)[C@@H]1Cc1ccc(C(F)(F)F)cc1 [PP0372] ([NMeL]I[NEtG][Sar][NPrPhe(4-CF3)][Sar][hPhe(3-Cl-4-CF3)][Hyp](Et)[Ac4c][NMeGly(cPent)]D-NMe2; lactam N-11)	B (a compound having 3 or more and less than 10 is denoted as B)	B (a compound having 3 or more and less than 10 is denoted as B)
